Reference: PubChem BioAssay AID212 (DTP/NCI, 2004)
“And” between values parts separate entries of the source, which are not always exact repeats. Equal entries are not always repeated. Results filed as inconclusive are left out.

Test system: BDF1 mice, colon carcinoma 38 sc, T/C %
Test: NCI In Vivo Anticancer Drug Screen. Data for tumor model Colon Carcinoma 38 (subcutaneous) in B6D2F1 (BDF1) mice
Conditions: endpoint: median tumor weight (est.), schedule: Q07DX002 (ip), higher = larger tumour
Method in brief: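 Transplantable tumor in mice; compound-treated vs vehicle-dosed controls. Measured survival or tumor size; value = T ÷ C.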

Structure (SMILES): Cc1ccc2c(c1)n([O-])c1cc(Cl)ccc1[n+]2=O
- T/C (dose: 25.0 mg/kg/injection, vehicle: saline with Tween-80): 118 % of control
- T/C (dose: 50.0 mg/kg/injection, vehicle: saline with Tween-80): 102 % of control
- T/C (dose: 100.0 mg/kg/injection, vehicle: saline with Tween-80): 78 % of control
- T/C (dose: 200.0 mg/kg/injection, vehicle: saline with Tween-80): 76 % of control
- T/C (dose: 400.0 mg/kg/injection, vehicle: saline with Tween-80): 79 % of control

Structure (SMILES): CNC(=O)ON(C(C)=O)C(=O)NC
- T/C (dose: 25.0 mg/kg/injection, vehicle: saline): 87 % of control and 106 % of control
- T/C (dose: 100.0 mg/kg/injection, vehicle: saline): 103 % of control

Structure (SMILES): O=C1OC(=O)[C@H]2[C@@H]1[C@H]1C=C[C@@H]2OC1=O
- T/C (dose: 25.0 mg/kg/injection, vehicle: suspension in saline): 59 % of control
- T/C (dose: 50.0 mg/kg/injection, vehicle: suspension in saline): 65 % of control
- T/C (dose: 100.0 mg/kg/injection, vehicle: suspension in saline): 44 % of control
- T/C (dose: 200.0 mg/kg/injection, vehicle: suspension in saline): 62 % of control
- T/C (dose: 400.0 mg/kg/injection, vehicle: suspension in saline): 71 % of control
- T/C (dose: 800.0 mg/kg/injection, vehicle: suspension in saline): 97 % of control

Structure (SMILES): CCCCN(CCCC)C(Cl)=Nc1ccccc1
- T/C (dose: 12.5 mg/kg/injection, vehicle: Klucel (hydroxypropylcellulose) (HPC)): 111 % of control and 118 % of control
- T/C (dose: 25.0 mg/kg/injection, vehicle: Klucel (hydroxypropylcellulose) (HPC)): 93 % of control and 94 % of control
- T/C (dose: 50.0 mg/kg/injection, vehicle: Klucel (hydroxypropylcellulose) (HPC)): 68 % of control and 89 % of control

Structure (SMILES): O=C1CN(CCN2CC(=O)N(CN3CCOCC3)C(=O)C2)CC(=O)N1CN1CCOCC1
- T/C (dose: 12.5 mg/kg/injection, vehicle: water): 168 % of control
- T/C (dose: 25.0 mg/kg/injection, vehicle: water): 158 % of control
- T/C (dose: 50.0 mg/kg/injection, vehicle: water): 36 % of control
- T/C (dose: 100.0 mg/kg/injection, vehicle: water): 113 % of control and 90 % of control
- T/C (dose: 200.0 mg/kg/injection, vehicle: water): 57 % of control

Structure (SMILES): CNC(=O)OCc1c(COC(=O)NC)c(-c2ccc(Cl)c(Cl)c2)n2c1Cc1ccccc1C2
- T/C (dose: 50.0 mg/kg/injection, vehicle: distilled water + Tween-80): 86 % of control
- T/C (dose: 100.0 mg/kg/injection, vehicle: distilled water + Tween-80): 81 % of control
- T/C (dose: 200.0 mg/kg/injection, vehicle: distilled water + Tween-80): 65 % of control

Structure (SMILES): CC(=O)CC(c1ccccc1)c1c(O)c2ccccc2oc1=O (stereo not given)
- T/C (dose: 0.01 mg/kg/injection, vehicle: Klucel (hydroxypropylcellulose) (HPC)): 96 % of control
- T/C (dose: 0.02 mg/kg/injection, vehicle: Klucel (hydroxypropylcellulose) (HPC)): 119 % of control
- T/C (dose: 0.05 mg/kg/injection, vehicle: Klucel (hydroxypropylcellulose) (HPC)): 100 % of control
- T/C (dose: 0.1 mg/kg/injection, vehicle: Klucel (hydroxypropylcellulose) (HPC)): 95 % of control
- T/C (dose: 0.2 mg/kg/injection, vehicle: Klucel (hydroxypropylcellulose) (HPC)): 86 % of control
- T/C (dose: 0.22 mg/kg/injection, vehicle: saline): 115 % of control
- T/C (dose: 0.45 mg/kg/injection, vehicle: saline with Tween-80): 91 % of control
- T/C (dose: 0.45 mg/kg/injection, vehicle: saline): 96 % of control
- T/C (dose: 0.9 mg/kg/injection, vehicle: saline with Tween-80): 110 % of control
- T/C (dose: 0.9 mg/kg/injection, vehicle: saline): 88 % of control
- T/C (dose: 1.8 mg/kg/injection, vehicle: saline): 72 % of control
- T/C (dose: 3.6 mg/kg/injection, vehicle: saline): 67 % of control

Structure (SMILES): CC(=O)c1cccc(NC2C(N)C(NC(=O)N(C)C)(C(C)O)C(C)(O)C2(O)COC(=O)c2c(C)cccc2O)c1 (stereo not given)
- T/C (dose: 1.0 mg/kg/injection, vehicle: suspension in saline): 110 % of control
- T/C (dose: 2.0 mg/kg/injection, vehicle: suspension in saline): 152 % of control
- T/C (dose: 4.0 mg/kg/injection, vehicle: suspension in saline): 104 % of control
- T/C (dose: 8.0 mg/kg/injection, vehicle: suspension in saline): 71 % of control
